The target of series [1] is T1, Mu-type opioid receptor (Homo sapiens, UniProt P35372). The series can be described thus: Agonist activity at human mu opioid receptor expressed in HEK293 cells assessed as inhibition of forskolin-stimulated cAMP accumulation by fluorescence assay. Type of series: functional, cell-based.
For series [2], the system named is HEK293. Nature of the series: Selectivity ratio of EC50 for human mu opioid receptor expressed in HEK293 cells over EC50 for human kappa opioid receptor expressed in HEK293 cells. The class given is cell-based.
Series [3] deals with Voltage-gated inwardly rectifying potassium channel KCNH2 (Homo sapiens, UniProt Q12809). The series can be described thus: Inhibition of human ERG channel expressed in HEK293 cells by whole-cell patch clamp technique. The class given is cell-based.
The nature of series [4]: Cardiotoxicity in isolated rabbit left ventricular wedge model assessed as torsade de pointes score at 0.3 to 1 uM. Type of series: toxicity, tissue-based, Oryctolagus cuniculus, Heart left ventricle.
Series [5] concerns the target Kappa-type opioid receptor (Homo sapiens, UniProt P41145). Nature of the series: Agonist activity at human kappa opioid receptor expressed in HEK293 cells assessed as inhibition of forskolin-stimulated cAMP accumulation by fluorescence assay. Type of series: functional, cell-based.
The target of series [6] is T1, Mu-type opioid receptor. Nature of the series: Agonist activity at human mu opioid receptor expressed in HEK293 cells assessed as beta-arrestin recruitment by chemiluminescence assay. Type of series: cell-based.
In series [7] the test system is Mus musculus. The series can be described thus: Toxicity in mouse glass bead model assessed as retention time of colonic motility at 3 mg/kg, sc. Particulars: in vivo. Type of series: organism-based, Colon. More on the design: dose 3 mg/kg, route subcutaneous.
In series [8] the test system is HEK293. The series can be described thus: Selectivity ratio of EC50 for human mu opioid receptor expressed in HEK293 cells over EC50 for human delta opioid receptor expressed in HEK293 cells. Type of series: cell-based.
For series [9], the system named is Mus musculus. The series can be described thus: Analgesic effect in sc dosed mouse by hot plate assay. The class given is functional.
The target of series [10] is T2, Sodium channel protein type 5 subunit alpha (Homo sapiens, UniProt Q14524). The series can be described thus: Inhibition of human Nav 1.5 tonic ion channel expressed in HEK293 cells by whole-cell patch clamp technique. The class given is cell-based.
Series [11] concerns Mus musculus. Nature of the series: Toxicity in mouse fecal boli accumulation model assessed as fecal boli production at equianalgesic dose, sc after 4 hrs relative to morphine. The note with it: in vivo. Type of series: organism-based.
The target of series [12] is T2, Sodium channel protein type 5 subunit alpha. The series can be described thus: Inhibition of human Nav 1.5 phasic ion channel expressed in HEK293 cells by whole-cell patch clamp technique. The class given is cell-based.
Series [13] has as its target Delta-type opioid receptor (Homo sapiens, UniProt P41143). The series can be described thus: Agonist activity at human delta opioid receptor expressed in HEK293 cells assessed as inhibition of forskolin-stimulated cAMP accumulation by fluorescence assay. The class given is functional, cell-based.
A short description of series [14]: Cardiotoxicity in isolated rabbit left ventricular wedge model assessed as increase in Tp-e interval at 1 uM. The class given is toxicity, tissue-based, Oryctolagus cuniculus, Heart left ventricle.
Series [15] addresses Voltage-dependent L-type calcium channel subunit alpha-1C (Homo sapiens, UniProt Q13936). The series can be described thus: Inhibition of human Cav 1.2 ion channel expressed in HEK293 cells by whole-cell patch clamp technique. The class given is cell-based.
Series [16] has as its system Mus musculus. Nature of the series: Analgesic effect in mouse at 3 mg/kg, sc after 30 mins by hot plate assay. Type of series: functional. The note with it: route subcutaneous.
Series [17] is described as follows: Cardiotoxicity in isolated rabbit left ventricular wedge model assessed as increase in QT interval at 1 uM. Type of series: toxicity, tissue-based, Oryctolagus cuniculus, Heart left ventricle.
Series [18] concerns Cynomolgus monkey. Nature of the series: Cardiotoxicity in cynomolgus monkey assessed as PR interval. Type of series: toxicity, organism-based, Macaca fascicularis. The note with it: in vivo.
Series [19] can be described thus: Cardiotoxicity in isolated rabbit left ventricular wedge model assessed as increase in QT interval at 0.3 uM. Type of series: toxicity, tissue-based, Oryctolagus cuniculus, Heart left ventricle.
For series [20], the system named is Cynomolgus monkey. The series can be described thus: Cardiotoxicity in cynomolgus monkey assessed as QT interval. The class given is toxicity, organism-based, Macaca fascicularis. Particulars: in vivo.
Series [21] concerns Cynomolgus monkey. Nature of the series: Cardiotoxicity in cynomolgus monkey assessed as QTc interval. Type of series: toxicity, organism-based, Macaca fascicularis. Particulars: in vivo.
Series [22] has as its system Cynomolgus monkey. The series can be described thus: Cardiotoxicity in cynomolgus monkey assessed as QRS duration. Type of series: toxicity, organism-based, Macaca fascicularis. Particulars: in vivo.
Series [23] in a line: Cardiotoxicity in isolated rabbit left ventricular wedge model assessed as proarrhyhmic event. Type of series: toxicity, tissue-based, Oryctolagus cuniculus, Heart left ventricle.
Series [24] can be described thus: Cardiotoxicity in isolated rabbit left ventricular wedge model assessed as torsade de pointes score up to 30 uM. The class given is toxicity, tissue-based, Oryctolagus cuniculus, Heart left ventricle.
Series [25] relates to Mus musculus. Nature of the series: Analgesic effect in mouse at 6 mg/kg, sc after 30 mins by hot plate assay. Type of series: functional. The note with it: route subcutaneous.

A value given as a limit tells only on which side of the number the result lay.

T2 sequence (Q14524 whole entry): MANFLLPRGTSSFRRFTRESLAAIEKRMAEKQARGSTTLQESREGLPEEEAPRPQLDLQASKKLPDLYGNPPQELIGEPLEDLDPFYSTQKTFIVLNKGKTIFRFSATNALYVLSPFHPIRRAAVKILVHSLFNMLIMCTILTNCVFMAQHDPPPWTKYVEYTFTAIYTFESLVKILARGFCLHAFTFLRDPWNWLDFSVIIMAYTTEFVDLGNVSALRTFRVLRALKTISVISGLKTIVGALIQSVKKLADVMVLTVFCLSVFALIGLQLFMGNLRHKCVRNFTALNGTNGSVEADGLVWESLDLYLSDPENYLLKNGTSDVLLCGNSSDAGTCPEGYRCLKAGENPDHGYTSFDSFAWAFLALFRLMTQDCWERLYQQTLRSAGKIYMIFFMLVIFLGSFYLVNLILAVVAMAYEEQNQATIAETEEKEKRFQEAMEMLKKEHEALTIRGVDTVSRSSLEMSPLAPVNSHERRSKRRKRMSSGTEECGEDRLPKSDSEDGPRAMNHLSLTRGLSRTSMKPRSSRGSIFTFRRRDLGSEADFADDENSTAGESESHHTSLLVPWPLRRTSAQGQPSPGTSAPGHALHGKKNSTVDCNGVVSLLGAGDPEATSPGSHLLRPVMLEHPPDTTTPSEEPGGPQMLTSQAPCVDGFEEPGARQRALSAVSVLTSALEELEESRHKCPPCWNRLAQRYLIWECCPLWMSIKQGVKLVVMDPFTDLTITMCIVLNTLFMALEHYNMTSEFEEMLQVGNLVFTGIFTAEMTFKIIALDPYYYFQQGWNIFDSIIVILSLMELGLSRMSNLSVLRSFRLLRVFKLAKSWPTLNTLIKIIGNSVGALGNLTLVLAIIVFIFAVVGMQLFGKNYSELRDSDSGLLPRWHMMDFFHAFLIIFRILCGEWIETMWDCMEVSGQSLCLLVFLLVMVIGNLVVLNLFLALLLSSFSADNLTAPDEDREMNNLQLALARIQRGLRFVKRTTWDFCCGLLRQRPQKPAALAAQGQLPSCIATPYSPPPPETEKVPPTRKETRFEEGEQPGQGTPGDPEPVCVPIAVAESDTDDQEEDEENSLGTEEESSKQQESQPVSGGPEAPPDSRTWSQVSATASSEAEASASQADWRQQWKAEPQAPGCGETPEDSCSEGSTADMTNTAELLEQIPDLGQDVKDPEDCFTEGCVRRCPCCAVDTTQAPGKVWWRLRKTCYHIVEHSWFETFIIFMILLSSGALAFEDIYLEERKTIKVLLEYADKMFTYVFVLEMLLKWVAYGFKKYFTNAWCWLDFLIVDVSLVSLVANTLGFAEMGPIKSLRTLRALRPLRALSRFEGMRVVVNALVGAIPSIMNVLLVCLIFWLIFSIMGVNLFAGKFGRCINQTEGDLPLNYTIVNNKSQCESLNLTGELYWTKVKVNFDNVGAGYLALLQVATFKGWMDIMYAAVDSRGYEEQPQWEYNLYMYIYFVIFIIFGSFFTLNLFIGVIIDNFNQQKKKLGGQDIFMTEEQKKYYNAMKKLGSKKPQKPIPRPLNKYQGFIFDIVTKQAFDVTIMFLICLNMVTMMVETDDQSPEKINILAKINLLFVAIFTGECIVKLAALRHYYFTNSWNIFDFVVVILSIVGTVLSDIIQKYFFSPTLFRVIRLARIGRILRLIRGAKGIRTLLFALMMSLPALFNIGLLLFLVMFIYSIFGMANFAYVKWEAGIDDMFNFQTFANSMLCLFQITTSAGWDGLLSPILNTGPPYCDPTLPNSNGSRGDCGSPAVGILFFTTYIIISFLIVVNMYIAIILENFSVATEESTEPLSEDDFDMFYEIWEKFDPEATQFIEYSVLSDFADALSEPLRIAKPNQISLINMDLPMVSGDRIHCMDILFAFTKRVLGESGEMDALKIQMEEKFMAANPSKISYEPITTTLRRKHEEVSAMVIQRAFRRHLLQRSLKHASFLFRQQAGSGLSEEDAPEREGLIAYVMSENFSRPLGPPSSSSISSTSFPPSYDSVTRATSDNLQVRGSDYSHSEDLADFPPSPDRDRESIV
T1 sequence (P35372 whole entry): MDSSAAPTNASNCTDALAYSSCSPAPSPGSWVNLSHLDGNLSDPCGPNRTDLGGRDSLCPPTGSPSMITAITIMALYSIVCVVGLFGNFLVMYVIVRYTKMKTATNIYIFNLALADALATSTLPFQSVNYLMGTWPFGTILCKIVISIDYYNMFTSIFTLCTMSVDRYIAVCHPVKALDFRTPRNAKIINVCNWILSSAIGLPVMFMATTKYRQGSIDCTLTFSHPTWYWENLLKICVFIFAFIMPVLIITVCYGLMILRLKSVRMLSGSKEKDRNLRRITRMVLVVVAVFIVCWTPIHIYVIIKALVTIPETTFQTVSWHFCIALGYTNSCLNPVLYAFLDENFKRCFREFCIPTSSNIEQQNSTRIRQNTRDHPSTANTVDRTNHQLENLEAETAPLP
Chain of Voltage-dependent L-type calcium channel subunit alpha-1C (Q13936 whole entry): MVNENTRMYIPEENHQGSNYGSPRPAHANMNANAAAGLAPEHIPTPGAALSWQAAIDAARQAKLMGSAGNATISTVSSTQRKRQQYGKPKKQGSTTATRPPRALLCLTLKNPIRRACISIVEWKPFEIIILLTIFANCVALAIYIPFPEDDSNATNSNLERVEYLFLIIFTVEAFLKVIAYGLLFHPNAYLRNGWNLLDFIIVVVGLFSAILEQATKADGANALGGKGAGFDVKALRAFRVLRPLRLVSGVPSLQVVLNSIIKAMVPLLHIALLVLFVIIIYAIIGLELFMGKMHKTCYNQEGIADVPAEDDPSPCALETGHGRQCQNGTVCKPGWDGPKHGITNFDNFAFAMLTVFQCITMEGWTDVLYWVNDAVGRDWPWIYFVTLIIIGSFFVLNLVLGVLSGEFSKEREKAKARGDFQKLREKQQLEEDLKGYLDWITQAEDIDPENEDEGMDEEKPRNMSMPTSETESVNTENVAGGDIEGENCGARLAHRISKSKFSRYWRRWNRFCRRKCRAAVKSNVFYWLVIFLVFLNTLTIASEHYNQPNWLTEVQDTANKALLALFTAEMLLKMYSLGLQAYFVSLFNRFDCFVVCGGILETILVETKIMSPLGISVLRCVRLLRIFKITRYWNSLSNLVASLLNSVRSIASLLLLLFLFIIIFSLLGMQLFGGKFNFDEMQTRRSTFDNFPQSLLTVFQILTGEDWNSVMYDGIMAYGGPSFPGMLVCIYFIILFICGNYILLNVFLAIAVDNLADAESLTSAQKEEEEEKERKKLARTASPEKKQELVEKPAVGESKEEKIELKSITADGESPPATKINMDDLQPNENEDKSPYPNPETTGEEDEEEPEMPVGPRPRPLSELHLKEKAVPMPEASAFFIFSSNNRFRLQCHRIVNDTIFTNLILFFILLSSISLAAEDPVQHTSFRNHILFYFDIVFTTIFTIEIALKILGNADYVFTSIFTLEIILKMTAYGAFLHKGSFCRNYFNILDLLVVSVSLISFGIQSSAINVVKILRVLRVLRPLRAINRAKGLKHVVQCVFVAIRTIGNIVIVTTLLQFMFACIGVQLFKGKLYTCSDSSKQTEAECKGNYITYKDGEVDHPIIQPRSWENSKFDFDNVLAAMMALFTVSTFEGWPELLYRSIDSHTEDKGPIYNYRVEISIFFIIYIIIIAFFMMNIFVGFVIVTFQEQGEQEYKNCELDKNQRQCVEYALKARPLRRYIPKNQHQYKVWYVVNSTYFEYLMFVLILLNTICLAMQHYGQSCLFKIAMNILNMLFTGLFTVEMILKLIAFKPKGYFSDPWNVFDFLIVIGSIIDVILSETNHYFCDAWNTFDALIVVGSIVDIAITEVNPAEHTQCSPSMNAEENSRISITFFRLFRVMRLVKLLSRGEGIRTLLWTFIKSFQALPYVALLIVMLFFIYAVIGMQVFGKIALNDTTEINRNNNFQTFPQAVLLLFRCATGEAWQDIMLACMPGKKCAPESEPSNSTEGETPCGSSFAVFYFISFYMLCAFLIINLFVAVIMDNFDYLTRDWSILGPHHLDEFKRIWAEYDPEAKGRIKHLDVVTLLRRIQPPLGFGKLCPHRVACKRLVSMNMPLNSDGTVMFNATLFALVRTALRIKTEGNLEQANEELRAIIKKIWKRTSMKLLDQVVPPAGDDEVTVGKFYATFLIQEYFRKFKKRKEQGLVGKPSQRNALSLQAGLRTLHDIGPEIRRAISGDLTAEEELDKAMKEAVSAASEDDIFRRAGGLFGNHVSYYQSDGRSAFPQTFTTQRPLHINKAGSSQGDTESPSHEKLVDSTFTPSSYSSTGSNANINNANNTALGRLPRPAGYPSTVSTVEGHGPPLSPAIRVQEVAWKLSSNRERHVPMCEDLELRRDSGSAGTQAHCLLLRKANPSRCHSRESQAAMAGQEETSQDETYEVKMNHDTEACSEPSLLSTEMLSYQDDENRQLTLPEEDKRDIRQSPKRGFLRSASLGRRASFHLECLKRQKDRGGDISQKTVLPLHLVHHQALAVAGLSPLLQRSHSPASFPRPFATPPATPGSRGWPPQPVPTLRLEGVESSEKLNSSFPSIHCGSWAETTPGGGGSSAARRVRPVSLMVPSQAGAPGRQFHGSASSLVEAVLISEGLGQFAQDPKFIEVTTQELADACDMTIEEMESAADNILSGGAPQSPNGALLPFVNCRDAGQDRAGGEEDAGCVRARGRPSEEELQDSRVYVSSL
Chain of Kappa-type opioid receptor (P41145 whole entry): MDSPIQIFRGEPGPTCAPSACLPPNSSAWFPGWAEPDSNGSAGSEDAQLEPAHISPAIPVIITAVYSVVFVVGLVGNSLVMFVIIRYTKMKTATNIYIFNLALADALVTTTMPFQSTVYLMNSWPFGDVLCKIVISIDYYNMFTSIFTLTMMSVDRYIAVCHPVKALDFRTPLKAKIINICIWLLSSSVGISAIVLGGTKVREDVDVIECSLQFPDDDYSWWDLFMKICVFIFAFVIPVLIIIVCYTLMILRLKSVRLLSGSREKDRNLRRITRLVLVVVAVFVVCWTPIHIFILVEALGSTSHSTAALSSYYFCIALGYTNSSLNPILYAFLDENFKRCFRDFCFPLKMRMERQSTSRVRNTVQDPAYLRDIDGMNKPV

With `Cc1ccsc1CNCC[C@@]1(c2ccccn2)CCOC2(CCCC2)C1`, the EC50 in series [1] is 6.31 nM.
Regarding `c1ccc([C@]2(CCNCc3cccs3)CCOC3(CCCC3)C2)nc1`, the results for the Ratio EC50 in [2] and in [8] were 71 and 56, respectively. Also, the IC50 in series [3] was 2300 nM; in [10] it was 20000 nM; in series [12], 9000 nM; in [15], above 100000 nM. The Activity result in series [4] is given as “Toxic”; in series [14], 65%; in series [17] it was 40%. Besides, the EC50 in series [5] is 900 nM; in series [6], 251 nM; in [1], 15.8 nM; in series [13], 750 nM. In series [7], the Retention_time was determined as 65 min. Besides, the 50% effective dose (ED50) in [9] amounted to 1.1 mg/kg. In addition, the “fold change (FC)” value in series [11] is given as 2. In [16], the MPE is 79%.
On to `c1ccc([C@]2(CCNCc3ccncn3)CCOC3(CCCC3)C2)nc1`, for which the values for the half-maximal effective concentration (EC50) in series [6] and in series [1] were 2000 nM and 794 nM, respectively.
As for `C[C@@H](NCC[C@@]1(c2ccc(F)cc2)CCOC2(CCCC2)C1)c1ccccc1`, in [1], the EC50 is 1000 nM.
On to `Cc1cc(CNCC[C@@]2(c3ccccn3)CCOC3(CCCC3)C2)sc1C`, for which the concentration for a half-maximal effect (EC50) in [6] was 501 nM; in series [1], 5.01 nM.
In the case of `COc1ccsc1CNCC[C@@]1(c2ccccn2)CCOC2(CCCC2)C1` [OLICERIDINE], the IC50 was 6200 nM in [3], 16500 nM in series [10], 4700 nM in [12] and 36000 nM in series [15]. The Activity entry in [18] was “Non-toxic”; in series [19] it was 3%; in series [20], “Non-toxic”; in series [21] it was “Non-toxic”; in [22] it was “Non-toxic”; in series [23] it was “Non-toxic”. The Activity result is reported as “Non-toxic” in series [24] and 7% in [14]. The figures for the concentration for a half-maximal effect (EC50) in [5] and in series [13] were 1400 nM and 2800 nM, respectively.
In the case of `c1ccc(CNCC[C@]2(c3ccccn3)CCOC3(CCCC3)C2)cc1`, the figures for the concentration giving a half-maximal response (EC50) in series [6] and in series [1] were 15800 nM and 631 nM, respectively.
For `Fc1ccc(C2(CCNCc3ccccc3)CCOC3(CCCC3)C2)cc1` (racemic), the EC50 in [6] was 631 nM; in series [1], 79.4 nM.
On to `CC[C@]1(C)CC(CCNCc2ccccc2O)(c2ccc(C)cc2)CCO1` (stereo partly drawn), for which the EC50 in series [6] is 2000 nM; in series [1], 501 nM.
Regarding `c1ccc(CNCC[C@@]2(c3ccccn3)CCOC3(CCCC3)C2)cc1`, the values for the EC50 in series [6] and in series [1] were 158 nM and 12.6 nM, respectively.
`Fc1ccc([C@@]2(CCNCc3ccccc3)CCOC3(CCCC3)C2)cc1`: the concentration giving a half-maximal response (EC50) was 7940 nM in series [6] and 501 nM in [1].
Taken in the same sequence, the figures for `Clc1cccc(CNCC[C@@]2(c3ccccn3)CCOC3(CCCC3)C2)c1` were 50.1 nM and 2.51 nM.
`CN1CC[C@]23c4c5ccc(O)c4O[C@H]2[C@@H](O)C=C[C@H]3[C@H]1C5` [MORPHINE] returned an MPE in [25] of 69%.
Turning to `Fc1ccc(C2(CCNCc3ccccc3)CCOC3(CCCCC3)C2)cc1` (stereo not drawn), the values for the concentration for a half-maximal effect (EC50) in [6] and in series [1] were 7940 nM and 398 nM, respectively.
Take `CC(C)(NCC[C@@]1(c2ccc(F)cc2)CCOC2(CCCC2)C1)c1ccccc1`: the EC50 in series [1] was 3160 nM.
Consider `Cc1ccc(CNCC[C@@]2(c3ccccn3)CCOC3(CCCC3)C2)s1`, for which the concentration giving a half-maximal response (EC50) in [1] is 15.8 nM.
With `Cc1cc(C)c(CNCC[C@@]2(c3ccccn3)CCOC3(CCCC3)C2)s1`, the 50% effective concentration (EC50) is 631 nM in series [6] and 25.1 nM in series [1].
Take `CCC1(CC)CC(CCNCc2ccccc2)(c2ccc(F)cc2)CCO1` (stereo not drawn): the concentration for a half-maximal effect (EC50) is 6310 nM in series [6] and 251 nM in series [1].
For the compound `c1ccc(CNCCC2(c3ccccn3)CCOC3(CCCC3)C2)cc1` (racemic), the EC50 in series [6] was 200 nM; in [1] it was 50.1 nM.
As for `Cc1ccc(C2(CCNCc3ccccc3O)CCOCC2)cc1`, the half-maximal effective concentration (EC50) in series [1] is 10000 nM.
As for `Fc1ccc([C@]2(CCNCc3ccccc3)CCOC3(CCCC3)C2)cc1`, the EC50 in series [6] was 398 nM; in series [1] it was 31.6 nM.
Turning to `c1ccc(CNCC[C@@]2(c3ccccn3)CCOC3(CCCC3)C2)nc1`, the EC50 in [1] was 158 nM.
Regarding `Clc1ccccc1CNCC[C@@]1(c2ccccn2)CCOC2(CCCC2)C1`, in series [1], the EC50 was 10 nM.
On to `Cc1cc(CNCC[C@@]2(c3ccccn3)CCOC3(CCCC3)C2)oc1C`, for which the 50% effective concentration (EC50) was 316 nM in series [6] and 31.6 nM in series [1].
With `c1ccc([C@]2(CCNCc3ccncc3)CCOC3(CCCC3)C2)nc1`, the EC50 in [1] was 1260 nM.
On the same count and under the same terms, for `C[C@H](NCC[C@@]1(c2ccc(F)cc2)CCOC2(CCCC2)C1)c1ccccc1` the value was 501 nM.
On the same count and under the same terms, the value for `CC1(C)CC(CCNCc2ccccc2)(c2ccc(F)cc2)CCO1` (stereo not drawn) was 1580 nM.
Consider `c1ccc([C@]2(CCNCc3ccsc3)CCOC3(CCCC3)C2)nc1`, for which the 50% effective concentration (EC50) in series [6] is 63.1 nM; in series [1] it was 12.6 nM.
Regarding `c1ccc([C@]2(CCNCc3cnccn3)CCOC3(CCCC3)C2)nc1`, the EC50 in series [1] is 631 nM.
As for `c1ccc([C@]2(CCNCc3ccc4ccccc4c3)CCOC3(CCCC3)C2)nc1`, the figures for the EC50 in series [6] and in series [1] were 20000 nM and 158 nM, respectively.
Regarding `Cc1ccc(CNCC[C@@]2(c3ccccn3)CCOC3(CCCC3)C2)o1`, the EC50 in series [6] is 200 nM; in series [1], 50.1 nM.
Consider `c1ccc([C@]2(CCNCC3CCCC3)CCOC3(CCCC3)C2)nc1`, for which the EC50 in [1] was 31.6 nM.
Take `c1ccc([C@]2(CCNCc3cccnc3)CCOC3(CCCC3)C2)nc1`: in series [1], the EC50 is 200 nM.
With `Cc1csc(CNCC[C@@]2(c3ccccn3)CCOC3(CCCC3)C2)c1`, the EC50 is 398 nM in [6] and 5.01 nM in [1].
On to `CC[C@]1(C)CC(CCNCc2ccccc2O)(c2ccc(F)cc2)CCO1` (stereo partly drawn), for which the concentration for a half-maximal effect (EC50) in series [6] was 1580 nM; in series [1], 39.8 nM.

These data come from ChEMBL document CHEMBL2440083 (J Med Chem, 2013).
